Where a SMILES comes first, the peptide text is derived from it. The star is where a group is joined. Cbz = O=C(OCc1ccccc1)*; OtBu = CC(C)(C)O*
How the values were obtained:
RelB [1] = test: RelB DNA binding ELISA on nuclear extracts of monocyte-derived DC; type: cell-based; conditions: human PB monocytes 48 h with GM-CSF and IL-4, 8 μM BAY 11-7082
Procedure: FIG. 7 is a graphical representation showing that nuclear extracts from BAY-treated monocyte-derived DC (MDDC) lack RelB-DNA binding and are unresponsive to LPS. MDDC were generated for 48 h from PB monocytes in the presence of GM-CSF and IL-4 in the presence (BAY DC) or absence (control DC) of 8 μM BAY, then stimulated with 1 μg/mL LPS for 24 hr. Nuclear extracts were prepared and analysed for NFkB DNA binding by ELISA.
Human PB monocytes were purified from PBMC by immunomagnetic selection using anti-CD14. They were incubated for 48 h in the presence of 800 U/mL each GM-CSF and IL-4 in RPMI and 10% FCS in the presence or absence of 8 μM BAY 11-7082. Nuclear extracts were prepared and RelB DNA binding was assessed using ELISA, as previously described (O'Sullivan and Thomas, 2002). […]
p50 and RelB DNA binding was detected by ELISA using a Mercury Transfactor p50 Kit (Clontech, Calif.). 10 μg of nuclear extract were bound to wells coated with NF-κB consensus oligonucleotide then incubated with either anti-RelB (sc-226) or anti-p50 (sc-7178), followed by anti-rabbit […] Ig (Silenus) and then detected by measuring color development of TMB at 650 nm using a Multiskan plate reader (Labsystems) (O'Sullivan and Thomas, 2002).

NF-κB = conditions: Pierce et al., 1997; cited from earlier work
NF-κB subunits = test: Immunoblot of nuclear and cytoplasmic extracts of BMDCs for NF-κB subunits; type: cell-based; conditions: murine BM precursors 6 days with GM-CSF and IL-4 in the presence of BAY
Procedure: To independently assess the relationship between RelB nuclear translocation and tolerance induction, BMDCs were generated in the presence or absence of the compound BAY 11-7082 (BAY). […] Murine BM precursors were incubated for 6 days with GM-CSF and IL-4 to produce BMDCs, in the presence or absence of BAY. All NF-κB subunits were demonstrable in BMDCs generated in the absence of BAY, and were present in both nuclear and cytoplasmic extracts (FIG. 2a). […] However, CD86 was expressed at higher levels in BAY-treated DCs than RelB-deficient DCs. […]
Nuclear and cytoplasmic extracts were prepared as previously described (Pettit et al., 1997) and protein estimations carried out using a Protein Assay kit (Bio-Rad, Hercules, Calif.). […] Following transfer to nitrocellulose (Amersham. Sussex, England), membranes were immunoblotted with either anti-RelB (sc-226), anti-p50 (sc-7178), anti-c-Rel, anti-RelA, or anti-p52 antibodies (all from Santa Cruz Biotechnology) followed by sheep anti-rabbit HRP-conjugated Ig (Silenus, Hawthorn, Australia) and then detected by enhanced chemiluminescence (ECL, Life Technologies, MO, USA) according to the manufacturer's instructions (Amersham).

BMDCs = test: Cell surface marker expression, yield and viability of murine BMDCs generated with BAY (flow cytometry); type: cell-based
Procedure: To independently assess the relationship between RelB nuclear translocation and tolerance induction, BMDCs were generated in the presence or absence of the compound BAY 11-7082 (BAY). […] Murine BM precursors were incubated for 6 days with GM-CSF and IL-4 to produce BMDCs, in the presence or absence of BAY. All NF-κB subunits were demonstrable in BMDCs generated in the absence of BAY, and were present in both nuclear and cytoplasmic extracts (FIG. 2a). […] However, CD86 was expressed at higher levels in BAY-treated DCs than RelB-deficient DCs. […] The ability of adoptively-transferred BAY-treated DCs to prime an mBSA-specific T cell proliferative response in naïve syngeneic mice when pulsed with the antigen mBSA was reduced, compared with mBSA-pulsed untreated BMDCs, or immunisation with mBSA and CFA (FIG. 2c).
According to the inventors' experience, every new batch of BAY needs to be titrated. The final concentration for mouse BMDC cultures may range between 2 and 15 μM. Since tolerance induction correlates precisely with CD40 expression by the DC, varying concentrations of BAY are added to BM DC cultures. At day 6-8, yield is check and viability test using PI and CD40 expression by FACS. […]
BMDCs were incubated for 30 min on ice with anti-CD86-FITC (GL1, PharMingen, San Diego, Calif.), anti-CD11c-PE (HL3, PharMingen), anti-CD11b-PE (M1/70, PharMingen), F4/80-PE (Serotec, Raleigh, N.C.), CD8α-PE (53-6.7, PharMingen), CD3-PE (17A2, PharMingen), or with anti-CD40 (3/23, PharMingen), anti-CD19 (1D3, American Type Culture Collection, ATCC), anti-Ly6-g and c (Gr1, RB6-BC5), anti-CD45R (B220, RA3-6B2, each a gift from G. Hill, Queensland Institute for Medical Research, Brisbane, Q1d), anti-MHC class I and anti-MHC class II (2G9, PharMingen), followed by biotinylated rabbit anti-rat Ig (DAKO, CA) and then streptavidin-FITC (DAKO). After washing, cells were analyzed using a FACScalibur (Becton Dickinson, San Jose, Calif.). Intracellular cytokine production was measured in lymphocytes by flow cytometric staining as described, with minor modifications (Sander et al., 1991). […]

[2] = tested on: human monocyte-derived DC; test: Phenotype of human monocyte-derived DC by flow cytometry; type: cell-based; conditions: human monocytes 48 hours, GM-CSF, IL-4; 10 κM BAY11-7082 or 2.5 or 10 μM PSI; relative to immature DC
Procedure: FIG. 8 is a graphical representation showing that modified human DC lack CD40 compared to immature DC. MDDC were generated for 48 h from PB monocytes in the presence of GM-CSF and IL-4 in the presence (modified DC) or absence (immature DC) of BAY, then stained for various cell surface markers and analysed by flow cytometry.
FIG. 9 is a graphical representation showing that modified human DC are unresponsive to CD40L. MDDC were generated for 48 h from PB monocytes in the presence of GM-CSF and IL-4 in the presence (modified DC) or absence (immature DC) of BAY, washed then incubated with or without 50 ng/ml soluble CD40L. Cells were then stained for CD86 and HLA-DR and analysed by flow cytometry.
FIG. 22 is a graphical representation showing the phenotype of NF-κB^− dendritic cells is reproducible with different NF-κB inhibitors. Dendritic cells were generated from human monocytes for 48 hours in the presence of GM-CSF, IL-4 and in the presence or absence of either 10 μM BAY11-7082 or 2.5 or 10 μM PSI (N-benzyloxycarbonyl-Ile-Glu(O-tert-butyl)-Ala-leucinal). Cells were then stained with anti-CD40, anti-CD86, anti-HLA-DR and anti-MHC class I mAb (green lines) and compared with isotype control staining (purple) by flow cytometry.
Human PB monocytes were purified from PBMC by immunomagnetic selection using anti-CD14. They were incubated for 48 h in the presence of 800 U/mL each GM-CSF and IL-4 in RPMI and 10% FCS in the presence or absence of 8 μM BAY 11-7082. Nuclear extracts were prepared and RelB DNA binding was assessed using ELISA, as previously described (O'Sullivan and Thomas, 2002). […] In keeping with the lack of CD40 expression, modified DC were unresponsive to 24 h incubation with 500 ng/mL soluble CD40 ligand trimer (sCD40L, Immunex, Seattle Wash.).
The present inventors examined whether the phenotype of the described dendritic cells that are capable of inducing tolerance when transferred in vivo, is reproducible when dendritic cells are generated with various NT-κB^− inhibitors. Dendritic cells were generated from human monocles for 48 hours in the presence of GM-CSF, IL-4 and in the presence or absence of either 10 […] of the IκB phosphorylation inhibitor BAY11-7082 or 2.5 or 10 μM of the proteasome inhibitor PSI (N-benzyloxycarbonyl-Ile-Glu(O-tert-butyl)-Ala-leucinal).

RelB [3] = conditions: LPS-treated monocyte-derived dendritic cells; cited from earlier work
[4] = murine BMDCs generated in the presence of BAY

## Cc1ccc(S(=O)(=O)/C=C/C#N)cc1 [BAY 11-7082]
RelB [1]
  RelB nuclear DNA binding activity: lacked RelB nuclear DNA binding activity
NF-κB
  TNF-α-stimulated NF-κB translocation: block TNF-α-stimulated NF-κB translocation through inhibition of IκB phosphorylation
NF-κB subunits
  NFκB subunit immunoreactivity in nuclear and cytoplasmic extracts: in the cytoplasm but not the nucleus
BMDCs; concentrations higher than the minimum that suppresses CD40
  toxicity: yield and viability of BM DC cultures: more toxic and affect yield and viability
BMDCs; [4]
  MHC class I and class II expression: expressed reduced levels of MHC class I and class II
  cell surface CD40 expression: lacked cell surface CD40 expression
[2]
  CD40 expression: CD40 expression was suppressed
  CD86 and MHC class I expression: CD86 and MHC class I expression were not changed
  HLA-DR expression: HLA-DR was reduced

## CC[C@H](C)[C@H](NC(=O)OCc1ccccc1)C(=O)N[C@@H](CCC(=O)OC(C)(C)C)C(=O)N[C@@H](C)C(=O)N[C@H](C=O)CC(C)C [PSI, N-benzyloxycarbonyl-Ile-Glu(O-tert-butyl)-Ala-leucinal] (Cbz-IE(OtBu)AL-aldehyde)
[2]
  CD40 expression: CD40 expression was suppressed
  CD86 and MHC class I expression: CD86 and MHC class I expression were not changed
  HLA-DR expression: HLA-DR was reduced

## C[S+]([O-])c1ccc(-c2nc(-c3ccncc3)c(-c3ccc(F)cc3)[nH]2)cc1 (stereo not shown) [SB203580]
RelB [3]
  nuclear RelB translocation: blocks nuclear RelB translocation
